Values quoted from earlier work as cited in US20080138440A1, “Methods of diagnosing and alleviating gadolinium toxicity” (priority 2006, published 2008).

Settings: high doses; cited from earlier work

In the case of `CNC[C@H](O)[C@@H](O)[C@H](O)[C@H](O)CO.CNC[C@H](O)[C@@H](O)[C@H](O)[C@H](O)CO.O=C([O-])CN(CCN(CC(=O)[O-])CC(=O)O)CCN(CC(=O)[O-])CC(=O)O.[Gd+3]` [gadopentetate dimeglumine injection, gadopentetate dimeglumine], the arrhythmias is given as “Arrhythmias have been noted”.
